Our source for the GI50 and TGI values is PubChem BioAssay (NCI).

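Results reflect a 48-hour exposure of cells in 96-well plates to compound at five concentrations. GI50 is the concentration that inhibits growth by half. TGI denotes the concentration required for complete inhibition of growth.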

Among the test systems are ACHN renal; CCRF-CEM leukemia; HOP-92 NSCLC; IGROV1 ovarian; K-562 leukemia; MCF7 breast; NCI-H460 lung; SNB-19 CNS; TK-10 renal; SF-295 CNS.
Assay in all cases: NCI anticancer screen, dose series, 48 h

Take `COC(=O)c1c[nH]c2cc(OC(C)C)c(OC(C)C)cc2c1=O`: the GI50 in the assay with ACHN renal, in the assay with CCRF-CEM leukemia, in the assay with HOP-92 NSCLC, with IGROV1 ovarian, with K-562 leukemia and with MCF7 breast was > 100 µM throughout. The GI50 in the assay with NCI-H460 lung, with SNB-19 CNS and in the assay on TK-10 renal was > 100 µM each time. Also, the TGI in the assay on ACHN renal, with CCRF-CEM leukemia, in the assay with HOP-92 NSCLC, in the assay on IGROV1 ovarian, in the assay with K-562 leukemia and in the assay on MCF7 breast was > 100 µM in each case. For the same compound, the TGI in the assay with NCI-H460 lung, in the assay with SNB-19 CNS and in the assay with TK-10 renal was > 100 µM throughout.

Regarding `Cc1ccc(N(C=O)c2c([N+](=O)[O-])cc([N+](=O)[O-])c3c2=[N+]([O-])CN=3)cc1`, the TGI was 64 µM with ACHN renal; 60.1 µM in the assay on HOP-92 NSCLC; > 100 µM with IGROV1 ovarian; 82.7 µM in the assay with K-562 leukemia; 57.7 µM in the assay on MCF7 breast; > 100 µM in the assay with NCI-H460 lung. In addition, the TGI was > 100 µM in the assay on SF-295 CNS, > 100 µM in the assay with SNB-19 CNS and 78.7 µM in the assay on TK-10 renal.

In the case of `COc1ccc(Cn2cc(COc3cc(/C=C/C(=O)c4cc(OC)c(OC)c(OC)c4)ccc3OC)nn2)cc1`, the GI50 in the assay with ACHN renal is 4.47 µM; with CCRF-CEM leukemia, 3.14 µM; in the assay with IGROV1 ovarian it was 4.14 µM; with K-562 leukemia, 3.13 µM; in the assay on MCF7 breast, 3.15 µM; in the assay with NCI-H460 lung it was 4.39 µM. The values for the GI50 with SNB-19 CNS and in the assay with TK-10 renal were 5.99 µM and 3.7 µM, respectively. Also, the TGI in the assay with ACHN renal is > 100 µM; in the assay with CCRF-CEM leukemia, > 100 µM; in the assay with IGROV1 ovarian it was > 100 µM; in the assay on K-562 leukemia, > 100 µM; in the assay with MCF7 breast it was > 100 µM; in the assay with NCI-H460 lung, 40.4 µM. The TGI in the assay on SNB-19 CNS is > 100 µM; in the assay with TK-10 renal, 26.3 µM.

In the case of `O=S(=O)(NC1=NCCN1C(=S)SN1CCn2c1nsc2=S)c1ccc(Oc2ccccc2)cc1`, the GI50 was 81.3 µM in the assay with ACHN renal; 74.2 µM in the assay with HOP-92 NSCLC; 31.8 µM with IGROV1 ovarian; 25.7 µM in the assay with MCF7 breast; 51.2 µM with NCI-H460 lung; > 100 µM with SF-295 CNS. For the same compound, the GI50 was > 100 µM in the assay with SNB-19 CNS and 64.4 µM in the assay with TK-10 renal. The TGI in the assay with ACHN renal, in the assay with HOP-92 NSCLC, in the assay on IGROV1 ovarian, with MCF7 breast, with NCI-H460 lung and in the assay with SF-295 CNS was > 100 µM throughout. The TGI in the assay on SNB-19 CNS and with TK-10 renal was > 100 µM each time.

Regarding `O=C(/C=C/c1ccccc1)c1cccc2ccccc12`, the GI50 was 3.66 µM in the assay on ACHN renal; 2.71 µM with CCRF-CEM leukemia; 2.05 µM in the assay with HOP-92 NSCLC; 3.4 µM in the assay with IGROV1 ovarian; 1.61 µM in the assay with K-562 leukemia; 3.07 µM in the assay with MCF7 breast. The GI50 is 1.84 µM in the assay on NCI-H460 lung, 4.1 µM with SNB-19 CNS and 4.04 µM in the assay with TK-10 renal. The TGI was determined as 14.3 µM in the assay on ACHN renal; 17.8 µM in the assay with CCRF-CEM leukemia; 6.8 µM with HOP-92 NSCLC; 10.9 µM in the assay with IGROV1 ovarian; 5.26 µM with K-562 leukemia; 11.1 µM with MCF7 breast. The TGI with NCI-H460 lung stood at 3.86 µM; in the assay with SNB-19 CNS it was 15.3 µM; in the assay with TK-10 renal, 14.2 µM.

In the case of `COC(=O)[C@H](Cc1cn(C)cn1)NC(=O)[C@H](CC(=O)OCc1ccccc1)NC(=O)Nc1cc(C(F)(F)F)cc(C(F)(F)F)c1`, the GI50 was 10.4 µM in the assay on ACHN renal; 9.81 µM in the assay with CCRF-CEM leukemia; 14.5 µM with IGROV1 ovarian; 4.15 µM in the assay on K-562 leukemia; 3.74 µM in the assay with MCF7 breast; 13.4 µM in the assay on NCI-H460 lung. Also, the figures for the GI50 in the assay with SF-295 CNS and in the assay with SNB-19 CNS were 10.9 µM and 13.8 µM, respectively. In addition, the TGI is 24 µM in the assay with ACHN renal; 24.7 µM in the assay with CCRF-CEM leukemia; 29.2 µM in the assay with IGROV1 ovarian; 15.7 µM in the assay with K-562 leukemia; > 100 µM in the assay with MCF7 breast; 28.7 µM with NCI-H460 lung. The results for the TGI in the assay on SF-295 CNS and with SNB-19 CNS were 24 µM and 28.5 µM, respectively.

`CC(=Nc1ccc(N(C)C)cc1)c1ccccc1`: the TGI is 77.1 µM with ACHN renal; 92.6 µM in the assay with CCRF-CEM leukemia; 75.3 µM with IGROV1 ovarian; 74.7 µM in the assay with K-562 leukemia; 46.9 µM in the assay on MCF7 breast; > 100 µM in the assay on NCI-H460 lung. Also, the TGI with SF-295 CNS is > 100 µM; in the assay with SNB-19 CNS it was > 100 µM; in the assay on TK-10 renal, 40.1 µM.

Consider `Nc1ccccc1C#C/C=C\C#Cc1ccccc1C#CCO`, for which the GI50 is 6.11 µM with ACHN renal; 11.9 µM in the assay on HOP-92 NSCLC; 0.382 µM in the assay with IGROV1 ovarian; 11.1 µM in the assay on K-562 leukemia; 7.87 µM with MCF7 breast; 8.73 µM in the assay on NCI-H460 lung. In addition, the GI50 with SF-295 CNS was 6.8 µM; with SNB-19 CNS it was 23.9 µM; with TK-10 renal, 11.8 µM. For the same compound, the TGI in the assay with ACHN renal is 18.3 µM; with HOP-92 NSCLC, > 50 µM; in the assay with IGROV1 ovarian, > 50 µM; with K-562 leukemia, > 50 µM; with MCF7 breast it was > 50 µM; in the assay on NCI-H460 lung, 22 µM. Also, the TGI with SF-295 CNS was 16.7 µM; with SNB-19 CNS, > 50 µM; in the assay with TK-10 renal, 27.5 µM.

`CN(C)c1ccc(/C=C(\C#N)c2cc3ccccc3[nH]2)cc1`: the GI50 with ACHN renal was 2.42 µM; with CCRF-CEM leukemia, 0.813 µM; in the assay on HOP-92 NSCLC, 1.42 µM; with IGROV1 ovarian, 1.6 µM; in the assay with MCF7 breast it was 0.416 µM; with NCI-H460 lung, 0.476 µM. In addition, the GI50 in the assay on SF-295 CNS is 0.61 µM; in the assay on SNB-19 CNS it was 2.23 µM; in the assay with TK-10 renal it was 2.66 µM. The TGI is > 100 µM in the assay on ACHN renal; 14.3 µM in the assay on CCRF-CEM leukemia; 5.53 µM with HOP-92 NSCLC; > 100 µM with IGROV1 ovarian; > 100 µM in the assay on MCF7 breast; > 100 µM in the assay with NCI-H460 lung. Further, the TGI with SF-295 CNS is 7.33 µM; in the assay with SNB-19 CNS, > 100 µM; in the assay with TK-10 renal, > 100 µM.

Take `O=C(Nc1ccncc1)C(=O)c1cn(S(=O)(=O)c2cccc(Cl)c2)c2ccccc12`: the GI50 is 7.58 µM with ACHN renal; 3.31 µM in the assay on HOP-92 NSCLC; 24.1 µM in the assay on IGROV1 ovarian; 2.5 µM in the assay on K-562 leukemia; 3.63 µM with MCF7 breast; 20 µM with NCI-H460 lung. Besides, the GI50 in the assay with SF-295 CNS was 2.92 µM; in the assay on SNB-19 CNS, 27.5 µM; in the assay on TK-10 renal, 23.5 µM. Moreover, the TGI in the assay with ACHN renal is 57.1 µM; in the assay with HOP-92 NSCLC, 23.1 µM; in the assay on IGROV1 ovarian, > 100 µM; with K-562 leukemia, > 100 µM; in the assay on MCF7 breast, > 100 µM; in the assay with NCI-H460 lung, > 100 µM. Further, the TGI in the assay on SF-295 CNS was 37.1 µM; in the assay on SNB-19 CNS, > 100 µM; in the assay on TK-10 renal it was 75.9 µM.

Consider `O=C1c2ccccc2C(=O)N1CCCOCc1c[nH]c(=O)[nH]c1=O`, for which the TGI in the assay with ACHN renal, in the assay on CCRF-CEM leukemia, in the assay with HOP-92 NSCLC, in the assay with IGROV1 ovarian, in the assay on K-562 leukemia and in the assay on NCI-H460 lung was > 100 µM throughout. For the same compound, the TGI in the assay on SF-295 CNS, in the assay with SNB-19 CNS and in the assay on TK-10 renal was > 100 µM each time.

Regarding `COc1cc(OCc2ccccc2)c2c(CCC(=O)O)cc(=O)oc2c1` (tested in a mixture with another compound), the TGI is > 100 µM with ACHN renal; > 100 µM in the assay on CCRF-CEM leukemia; > 100 µM in the assay on HOP-92 NSCLC; > 100 µM in the assay with IGROV1 ovarian; > 100 µM in the assay on K-562 leukemia; 61.7 µM in the assay with MCF7 breast. The results for the TGI with SNB-19 CNS and with TK-10 renal were > 100 µM and 96.6 µM, respectively.

Take `COc1ccc(Oc2nc3cc(N)cc(N)c3nc2-c2ccccc2)cc1`: the GI50 is 36.4 µM in the assay with ACHN renal; 2.97 µM in the assay with CCRF-CEM leukemia; 24.9 µM in the assay on IGROV1 ovarian; 26.1 µM in the assay on K-562 leukemia; 48.2 µM in the assay on MCF7 breast; 30.6 µM in the assay on NCI-H460 lung. In addition, the values for the GI50 in the assay on SF-295 CNS, in the assay on SNB-19 CNS and in the assay with TK-10 renal were 23.4 µM, 65 µM and 53.5 µM, respectively. Also, the TGI in the assay on ACHN renal is > 100 µM; with CCRF-CEM leukemia it was 12.6 µM; in the assay with IGROV1 ovarian, > 100 µM; with K-562 leukemia, > 100 µM; with MCF7 breast it was > 100 µM; in the assay on NCI-H460 lung, > 100 µM. The TGI is 52.4 µM with SF-295 CNS, > 100 µM in the assay with SNB-19 CNS and > 100 µM in the assay on TK-10 renal.

On to `O=C(Oc1ccccc1)N(c1ccccc1)c1ccccc1`, for which the GI50 in the assay on ACHN renal was 28.8 µM; in the assay on CCRF-CEM leukemia, 37 µM; in the assay on HOP-92 NSCLC, 19 µM; in the assay with IGROV1 ovarian, 38.1 µM; with K-562 leukemia, 25.8 µM; in the assay on NCI-H460 lung, 26.4 µM. Besides, the GI50 in the assay with SF-295 CNS was 18.8 µM; in the assay on SNB-19 CNS, 40.7 µM; with TK-10 renal, 37.1 µM. The TGI with ACHN renal is > 100 µM; in the assay with CCRF-CEM leukemia, > 100 µM; with HOP-92 NSCLC it was 66.9 µM; in the assay on IGROV1 ovarian, > 100 µM; in the assay with K-562 leukemia, > 100 µM; with NCI-H460 lung it was 89.2 µM. Also, the results for the TGI in the assay with SF-295 CNS, in the assay on SNB-19 CNS and with TK-10 renal were 58.7 µM, > 100 µM and > 100 µM, respectively.
